Each structure is given as a SMILES string. Where only a bound is given, the exact number is not on record here.

The experiment addresses TNAP (Homo sapiens (Human), UniProt P05186). Briefly: TNAP (PPi) inhibition assay, pyrophosphate as substrate. Type of experiment: biochemical. Put shortly: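 Secreted epitope-tagged human TNAP from transiently transfected COS-1 cells, dialyzed to remove phosphate. Inhibitors tested kinetically at pH 7.4 with PPi as substrate; released phosphate quantified colorimetrically with Biomol Green reagent.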
Molecule `COc1ccc(-c2cncc(NS(=O)(=O)c3cc(Cl)ccc3OC(F)(F)F)c2)cc1` [Example XI-1, 5-chloro-N-[5-(4-methoxy-phenyl)-pyridin-3-yl]-2-trifluoromethoxy-benzenesulfonamide] returned an IC50 of less than 0.1 µM.
The result for `COc1ccc(-c2cncc(NS(=O)(=O)c3cc(OC(F)(F)F)ccc3OC)c2)cc1` [Example XI-2, 2-Methoxy-N-(5-(4-methoxyphenyl)pyridin-3-yl)-5-(trifluoromethoxy)benzenesulfonamide] reads less than 0.1 µM; that for `O=S(=O)(Nc1cncc(-c2ccc(OC(F)(F)F)cc2)c1)c1cc(Cl)ccc1OC(F)(F)F` [Example XI-3, 5-Chloro-2-(trifluoromethoxy)-N-(5-(4-(trifluoromethoxy)phenyl)pyridin-3-yl)benzenesulfonamide], 0.1 to 1 µM; that for `O=S(=O)(Nc1cncc(-c2ccc(OC(F)(F)F)cc2)c1)c1cc(Br)ccc1OC(F)(F)F` [Example XI-4, 5-Bromo-2-(trifluoromethoxy)-N-(5-(4-(trifluoromethoxy)phenyl)pyridin-3-yl)benzenesulfonamide], 0.1 to 1 µM.
`O=S(=O)(Nc1cncc(-c2ccc(F)cc2)c1)c1cc(Cl)ccc1OC(F)(F)F` [Example XI-8, 5-Chloro-N-(5-(4-fluorophenyl)pyridin-3-yl)-2-(trifluoromethoxy)benzenesulfonamide] registered an IC50 of less than 0.1 µM.
The result for `O=S(=O)(Nc1cncc(-c2ccc(F)cc2)c1)c1cc(Br)ccc1OC(F)(F)F` [Example XI-9, 5-Bromo-N-(5-(4-fluorophenyl)pyridin-3-yl)-2-(trifluoromethoxy)benzenesulfonamide] reads 0.1 to 1 µM; that for `COc1ccc(OC(F)(F)F)cc1S(=O)(=O)Nc1cncc(-c2ccc(F)cc2)c1` [Example XI-10, N-(5-(4-Fluorophenyl)pyridin-3-yl)-2-methoxy-5-(trifluoromethoxy)benzenesulfonamide], 0.1 to 1 µM.
Under `N#Cc1ccc(-c2cncc(NS(=O)(=O)c3cc(Br)ccc3OC(F)(F)F)c2)cc1` [Example XI-11, 5-Bromo-N-(5-(4-cyanophenyl)pyridin-3-yl)-2-(trifluoromethoxy)benzenesulfonamide] stands 0.1 to 1 µM; under `O=S(=O)(Nc1cncc(-c2ccco2)c1)c1cc(Cl)ccc1OC(F)(F)F` [Example XI-12, 5-Chloro-N-(5-(furan-2-yl)pyridin-3-yl)-2-(trifluoromethoxy)benzenesulfonamide], less than 0.1 µM.
For `COc1ccc(OC(F)(F)F)cc1S(=O)(=O)Nc1cncc(-c2ccco2)c1` [Example XI-13, N-(5-(Furan-2-yl)pyridin-3-yl)-2-methoxy-5-(trifluoromethoxy)benzenesulfonamide], the IC50 was less than 0.1 µM.
Under `O=S(=O)(Nc1cncc(-c2cccs2)c1)c1cc(Cl)ccc1OC(F)(F)F` [Example XI-14, 5-Chloro-N-(5-(thiophen-2-yl)pyridin-3-yl)-2-(trifluoromethoxy)benzenesulfonamide] stands 0.1 to 1 µM; under `O=S(=O)(Nc1cncc(-c2cccs2)c1)c1cc(Br)ccc1OC(F)(F)F` [Example XI-15, 5-Bromo-N-(5-(thiophen-2-yl)pyridin-3-yl)-2-(trifluoromethoxy)benzenesulfonamide], 0.1 to 1 µM.
The result for `COc1ccc(OC(F)(F)F)cc1S(=O)(=O)Nc1cncc(-c2cccs2)c1` [Example XI-16, 2-Methoxy-N-(5-(thiophen-2-yl)pyridin-3-yl)-5-(trifluoromethoxy)benzenesulfonamide] reads less than 0.1 µM; that for `O=S(=O)(Nc1cncc(-c2ccccn2)c1)c1cc(Cl)ccc1OC(F)(F)F` [Example XI-17, N-([2,3′-Bipyridin]-5′-yl)-5-chloro-2-(trifluoromethoxy)benzenesulfonamide], 0.1 to 1 µM; that for `O=S(=O)(Nc1cncc(-c2ccccn2)c1)c1cc(Br)ccc1OC(F)(F)F` [Example XI-18, N-([2,3′-Bipyridin]-5′-yl)-5-bromo-2-(trifluoromethoxy)benzenesulfonamide], 0.1 to 1 µM.
Under `COc1ccc(OC(F)(F)F)cc1S(=O)(=O)Nc1cncc(-c2ccccn2)c1` [Example XI-19, N-([2,3′-Bipyridin]-5′-yl)-2-methoxy-5-(trifluoromethoxy)benzenesulfonamide] stands 0.1 to 1 µM; under `O=S(=O)(Nc1cncc(-c2cnccn2)c1)c1cc(Cl)ccc1OC(F)(F)F` [Example XI-20, 5-Chloro-N-(5-(pyrazin-2-yl)pyridin-3-yl)-2-(trifluoromethoxy)benzenesulfonamide], 0.1 to 1 µM; under `O=S(=O)(Nc1cncc(-c2cnccn2)c1)c1cc(Br)ccc1OC(F)(F)F` [Example XI-21, 5-Bromo-N-(5-(pyrazin-2-yl)pyridin-3-yl)-2-(trifluoromethoxy)benzenesulfonamide], 0.1 to 1 µM.
In turn, `COc1ccc(OC(F)(F)F)cc1S(=O)(=O)Nc1cncc(-c2cnccn2)c1` [Example XI-22, 2-Methoxy-N-(5-(pyrazin-2-yl)pyridin-3-yl)-5-(trifluoromethoxy)benzenesulfonamide] came in with an IC50 of 0.1 to 1 µM.
Under `O=S(=O)(Nc1cncc(-c2ncccn2)c1)c1cc(Cl)ccc1OC(F)(F)F` [Example XI-23, 5-chloro-N-(5-(pyrimidin-2-yl)pyridin-3-yl)-2-(trifluoromethoxy)benzenesulfonamide] stands more than 1 µM; under `O=S(=O)(Nc1cncc(-c2ncccn2)c1)c1cc(Br)ccc1OC(F)(F)F` [Example XI-24, 5-Bromo-N-(5-(pyrimidin-2-yl)pyridin-3-yl)-2-(trifluoromethoxy)benzenesulfonamide], 0.1 to 1 µM.
Take `O=S(=O)(Nc1cncc(-c2cncs2)c1)c1cc(Cl)ccc1OC(F)(F)F` [Example XI-25, 5-Chloro-N-(5-(thiazol-5-yl)pyridin-3-yl)-2-(trifluoromethoxy)benzenesulfonamide]: the IC50 was in the range of 0.1 to 1 µM.
The result for `O=S(=O)(Nc1cncc(-c2cncs2)c1)c1cc(Br)ccc1OC(F)(F)F` [Example XI-26, 5-bromo-N-(5-(thiazol-5-yl)pyridin-3-yl)-2-(trifluoromethoxy)benzenesulfonamide] reads less than 0.1 µM; that for `COc1ccc(OC(F)(F)F)cc1S(=O)(=O)Nc1cncc(-c2cncs2)c1` [Example XI-27, 2-Methoxy-N-(5-(thiazol-5-yl)pyridin-3-yl)-5-(trifluoromethoxy)benzenesulfonamide], 0.1 to 1 µM; that for `O=S(=O)(Nc1cncc(-c2cscn2)c1)c1cc(Cl)ccc1OC(F)(F)F` [Example XI-28, 5-Chloro-N-(5-(thiazol-4-yl)pyridin-3-yl)-2-(trifluoromethoxy)benzenesulfonamide], less than 0.1 µM.
The result for `O=S(=O)(Nc1cncc(-c2cscn2)c1)c1cc(Br)ccc1OC(F)(F)F` [Example XI-29, 5-Bromo-N-(5-(thiazol-4-yl)pyridin-3-yl)-2-(trifluoromethoxy)benzenesulfonamide] reads less than 0.1 µM; that for `COc1ccc(OC(F)(F)F)cc1S(=O)(=O)Nc1cncc(-c2cscn2)c1` [Example XI-30, 2-Methoxy-N-(5-(thiazol-4-yl)pyridin-3-yl)-5-(trifluoromethoxy)benzenesulfonamide], less than 0.1 µM.
`Cn1cc(-c2cncc(NS(=O)(=O)c3cc(Br)ccc3OC(F)(F)F)c2)cn1` [Example XI-31, 5-Bromo-N-(5-(1-methyl-1H-pyrazol-4-yl)pyridin-3-yl)-2-(trifluoromethoxy)benzenesulfonamide] showed a half-maximal inhibitory concentration (IC50) of less than 0.1 µM.
On to `COc1ccc(OC(F)(F)F)cc1S(=O)(=O)Nc1cncc(-c2cnn(C)c2)c1` [Example XI-32, 2-Methoxy-N-(5-(1-methyl-1H-pyrazol-4-yl)pyridin-3-yl)-5-(trifluoromethoxy)benzenesulfonamide], for which the IC50 is less than 0.1 µM.
Turning to `COC(=O)c1cncc(NS(=O)(=O)c2cc(Cl)ccc2OC(F)(F)F)c1` [Example XII-1, Methyl 5-(5-chloro-2-(trifluoromethoxy)phenylsulfonamido)nicotinate], the IC50 lay within 0.1 to 1 µM.
The result for `O=C(OC1CCCCC1)c1cncc(NS(=O)(=O)c2cc(Cl)ccc2OC(F)(F)F)c1` [Example XII-3, Cyclohexyl 5-(5-chloro-2-(trifluoromethoxy)phenylsulfonamido)nicotinate] reads less than 0.1 µM; that for `O=C(Oc1ccccc1)c1cncc(NS(=O)(=O)c2cc(Cl)ccc2OC(F)(F)F)c1` [Example XII-4, Phenyl 5-(5-chloro-2-(trifluoromethoxy)phenylsulfonamido)nicotinate], less than 0.1 µM; that for `CNC(=O)c1cncc(NS(=O)(=O)c2cc(Cl)ccc2OC(F)(F)F)c1` [Example XII-6, 5-(5-Chloro-2-(trifluoromethoxy)phenylsulfonamido)-N-methylnicotinamide], 0.1 to 1 µM.
In turn, `CCCNC(=O)c1cncc(NS(=O)(=O)c2cc(Cl)ccc2OC(F)(F)F)c1` [Example XII-7, 5-(5-Chloro-2-(trifluoromethoxy)phenylsulfonamido)-N-propylnicotinamide] returned an IC50 of more than 1 µM.
The result for `O=C(NC1CCCCC1)c1cncc(NS(=O)(=O)c2cc(Cl)ccc2OC(F)(F)F)c1` [Example XII-8, 5-(5-Chloro-2-(trifluoromethoxy)phenylsulfonamido)-N-cyclohexylnicotinamide] reads 0.1 to 1 µM.
The result for `COC(=O)c1cncc(NS(=O)(=O)c2cc(Br)ccc2OC(F)(F)F)c1` [Example XII-9, Methyl 5-(5-bromo-2-(trifluoromethoxy)phenylsulfonamido)nicotinate] reads 0.1 to 1 µM; that for `O=C(O)c1cncc(NS(=O)(=O)c2cc(Br)ccc2OC(F)(F)F)c1` [Example XII-10, 5-(5-Bromo-2-(trifluoromethoxy)phenylsulfonamido)nicotinic acid], less than 0.1 µM.
The molecule `O=C(OC1CCCCC1)c1cncc(NS(=O)(=O)c2cc(Br)ccc2OC(F)(F)F)c1` [Example XII-11, Cyclohexyl 5-(5-bromo-2-(trifluoromethoxy)phenylsulfonamido)nicotinate] yielded an IC50 of less than 0.1 µM.
Under `O=C(Oc1ccccc1)c1cncc(NS(=O)(=O)c2cc(Br)ccc2OC(F)(F)F)c1` [Example XII-12, Phenyl 5-(5-bromo-2-(trifluoromethoxy)phenylsulfonamido)nicotinate] stands less than 0.1 µM.

Usually IC50 stands for the midpoint of a concentration-inhibition curve. A lower IC50 goes with greater potency.

These data come from patent publication US10370333B2 (Sanford Burnham Prebys Medical Discovery Institute, priority 2012, dated 2019).
